Experiment [1] deals with glioblastoma stem cells (GSCs). Description: Dose response cell viability, CellTiter-Glo ATP-based assay, GSCs. As to conditions: Homo sapiens, 0 to 32 nM, 72 hours. An excerpt:
Human tissues were acquired from primary human brain tumor patient specimens in accordance with appropriate approved Institutional Review Board protocols. Tumor grade and available cytogenetic information for each specimen has been previously described. Tumor specimens were maintained through subcutaneous xenografts in the flanks of athymic Nu/Nu or NSG mice. Tumors were dissociated using a papain dissociation system (Worthington Biochemical, Lakewood, N.J.). […]
The half maximal effective concentration of ispinesib for acutely dissociated and MACS sorted matched GSCs and NSTCs was determined by plating, in triplicate, 1,000 cells per well of a 96 well plate pre-coated with GelTrex in growth-factor free Neuralbasal media. […] Viability was measured at 72 hours using CellTiter-Glo ATP-based assay (Promega, Madison, Wis.) read on a luminometer (Perkin-Elmer, Waltham, Mass.). […] The next day, cells were exposed to 3 nM ispinesib or vehicle (DMSO) and viability was measured daily for 5 days using CellTiter-Glo. Day 0 reading were taken immediately after addition of drug or vehicle. SubG1 for GSCs and NSTCs was determined by flow cytometry for propidium iodide and gated as the events below the 2N G1 peak of the resulting histogram. […] Cells were fixed at Day 0 through Day 4 in 100% cold ethanol and simultaneously processed for flow analysis with 20,000 events analyzed per condition.

Experiment [2] concerns 08-387 GSCs. The experiment in a line: Nascent process analysis. Type of experiment: cell-based, human. The settings on record: 200 nM; 6-hour time course; p<0.0001. As for the experimental part: 08-387 GSCs enriched in interphase were seeded at 6,000 cells per well of a 6 well plate and allowed to adhere for 1 hour. Cells were then exposed to vehicle or 200 nM ispinesib and images recorded over a 6-hour period using the IncuCyte ZOOM (Essen Biosciences, Ann Arbor, Mich.). Process formation was measured using CellPlayer NeuroTrack Software Module (Essen Biosciences).

The target in experiment [3] is T1, Eg5 (Homo sapiens, UniProt P52732).
T1 sequence (P52732 1-1056): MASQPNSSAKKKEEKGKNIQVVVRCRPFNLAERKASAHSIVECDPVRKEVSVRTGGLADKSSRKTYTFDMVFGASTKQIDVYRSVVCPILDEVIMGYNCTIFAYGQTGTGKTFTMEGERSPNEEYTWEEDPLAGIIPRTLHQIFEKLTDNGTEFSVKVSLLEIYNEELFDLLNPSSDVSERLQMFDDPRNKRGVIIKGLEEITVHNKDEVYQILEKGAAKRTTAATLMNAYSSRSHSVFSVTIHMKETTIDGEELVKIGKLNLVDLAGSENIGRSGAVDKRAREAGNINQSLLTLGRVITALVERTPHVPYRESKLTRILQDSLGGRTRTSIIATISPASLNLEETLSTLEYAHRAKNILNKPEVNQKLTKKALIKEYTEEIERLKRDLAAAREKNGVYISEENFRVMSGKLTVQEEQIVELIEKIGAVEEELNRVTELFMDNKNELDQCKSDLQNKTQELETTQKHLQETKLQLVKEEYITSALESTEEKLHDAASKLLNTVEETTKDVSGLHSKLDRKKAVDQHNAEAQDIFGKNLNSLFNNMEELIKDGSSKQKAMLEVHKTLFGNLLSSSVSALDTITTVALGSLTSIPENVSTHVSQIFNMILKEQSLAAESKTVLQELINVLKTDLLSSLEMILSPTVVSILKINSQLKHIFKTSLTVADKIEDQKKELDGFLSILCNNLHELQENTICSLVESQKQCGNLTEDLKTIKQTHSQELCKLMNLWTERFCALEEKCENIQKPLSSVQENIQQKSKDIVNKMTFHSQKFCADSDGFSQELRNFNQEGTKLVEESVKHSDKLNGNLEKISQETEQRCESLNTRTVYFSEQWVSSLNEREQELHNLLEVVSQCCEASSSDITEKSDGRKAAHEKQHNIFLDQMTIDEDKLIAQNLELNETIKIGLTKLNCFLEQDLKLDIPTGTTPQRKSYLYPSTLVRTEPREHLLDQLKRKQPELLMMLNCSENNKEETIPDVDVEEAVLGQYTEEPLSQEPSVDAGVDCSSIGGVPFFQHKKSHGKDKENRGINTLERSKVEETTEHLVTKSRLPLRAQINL
As to conditions: cited from earlier work.

As for `Cc1ccc(C(=O)N(CCCN)[C@@H](c2nc3cc(Cl)ccc3c(=O)n2Cc2ccccc2)C(C)C)cc1` [ispinesib, N-(3-amino-propyl)-n-[R-1-(3-benzyl-7-choloro-4-oxo-3,4-dihydroquinazolin-2-yl)-2-methyl-propyl]-4-methyl-benzamide methanesulfonate], the response in experiment [1] was half-maximal at 1.15 ± 0.35 nM (EC50). Moreover, in experiment [2], the “process length in GSCs” value is given as “appreciably attenuated”. In addition, in experiment [3], the “selectivity for Eg5 over other kinesins” value is given as 40,000 times.

The values above are taken from patent US20150352114A1, “MITOTIC KINESIN Eg5 INHIBITING ANTICANCER AGENTS” (THE CLEVELAND CLINIC FOUNDATION, priority 2014, published 2015).
